Laboratory results from patent US9150608B2, “Neuro-protective compounds and their use” (Biotechnology Research Corp. Ltd., priority 2010, dated 2015).

Legend:
[1] = system: rat cortical neurons cultured in the absence of B27; assay: Cortical neuron survival assay with B27 withdrawal (MTT); assay type: cell-based; details: for cell survival of cortical neurons in the absence of B27 (MTT): 30 μM, pre-treated 24 hours (FIG. 15); for concentration showing neuroprotective effect in the absence of B27 (MTT): primary cortical neurons 7DIV, dose-dependent study 1-30 μM
Description: FIG. 2. Adelostemma gracillimum refined fraction promotes rat cortical neuron survival against B27 withdrawal. Cortical neurons isolated from embryonic day 18 rats were cultured in Neurobasal medium supplemented with 2 % B27. […] A MTT assay was performed 24 hours later. Cell survival is presented as a percentage compared to a DMSO control in the presence of B27 (“CTL with B27”). Assays were conducted in triplicate and repeated at least twice. *=P<0.05.
Primary cortical neurons were cultured in Neurobasal medium and supplemented with B27, a proprietary formula of Life Technologies. The combination of Neurobasal medium and B27 provides a stable growth environment for primary neurons to maturity in vitro. Neurons undergo apoptosis or cell death in the absence of B27. To study the neuroprotective effect of Adelostemma gracillimum refined fraction, neurons of 7DIV were treated with AG-0 and cell survival was measured as mitochondrial activity by the MTT assay.
The cells were then washed with Hanks' solution twice and replaced with test samples that were serial diluted in Neurobasal medium. A tetrazole, 3-(4,5-Dimethylthiazol-2-yl)-2,5-diphenyltetrazolium bromide (MTT, 5 mg/ml) was added to the medium at a ratio of 1:10 after a 2-day incubation. MTT is reduced by living cells into purple formazan and further solubilized in 20% SDS solution; therefore, the colored solution was measured by spectrophotometer and cell viability was quantified.

[2] = system: cortical neurons in the absence of B27; assay: Immunocytochemical analysis of neurons after B27 withdrawal; assay type: cell-based, rat; details: 30 μM, pre-treated 24 hours
Description: FIG. 10. Immunofluorescence staining of cortical neurons pretreated with Adelostemma gracillimum refined fraction or fraction AG-3 in the absence of B27. […] Cortical neuronal cultures of 7DIV were pre-treated with AG-0 (30 μg/mL), AG-3 (30 μg/mL), or BDNF (50 ng/mL) for 24 hours, then the medium was changed to one lacking B27. Cultures were fixed with 4% paraformaldehyde, immunostained with beta-tubulin type III antibody, and visualized with FITC-conjugated anti-mouse antibody. Cell bodies were highlighted by DAPI staining. DMSO was used as a solvent control. Images are shown at 40× magnification.
FIG. 21. Immunofluorescence staining of GAG-C27-treated cortical neurons in the absence of B27. Cortical neuronal cultures of 7DIV were pre-treated with AG-0 (30 μg/mL), GAG-C27 (30 μM), or BDNF (50 ng/mL) for 24 hours, after which the medium was changed to one lacking B27. Cultures were fixed with 4% paraformaldehyde, immunostained with beta-tubulin type III antibody, and visualized with FITC-conjugated anti-mouse antibody. Cell bodies were highlighted by DAPI staining. DMSO was used as a solvent control. […]
Cortical neurons were plated on 35-mm dishes (NUNC) at a density of 1×10^6 cells per plate using Neurobasal medium (Invitrogen) supplemented with 2% B27 (Invitrogen). […] Cell morphology was then analyzed using a fluorescence microscope with a 40× objective (DMRA; Leica). […]

[3] = system: phosphorylated ERK, CREB, Akt, P38, MEK in cortical neurons; assay: Western blot detection of signaling proteins in cortical neurons; assay type: cell-based, rat; details: cortical neurons 7DIV
[4] = system: cyclic AMP response (CRE) element; assay: CRE-dependent transcription assay (luciferase); assay type: cell-based, rat; details: hippocampal neurons 12DIV, 50 μM, 6 hours
Description: FIG. 41. GAG compounds enhance CRE-dependent transcription activity. GAG-C14 (a), GAG-C53 (b), GAG-C63 (c), GAG-C69 (d), GAG-C84 (e), GAG-C111 (f), GAG-C122 (g), GAG-C123 (h), and GAG-C129 (i) induce CRE-dependent transcriptional activity in cultured hippocampal neurons. On the day of cell seeding, hippocampal neurons were transfected with a firefly luciferase reporter plasmid containing cyclic AMP response (CRE)-element. The cells at 12 DIV were then treated with 50 μM of AG compounds for 6 hours. Data are mean±SEM (n=3-4), *=P<0.05, **=P<0.01, and ***=P<0.005 versus vehicle-treated cells (0 μM), student's t test.
Cultured hippocampal neurons were transfected with a firefly luciferase reporter plasmid containing a cyclic AMP response (CRE) element. At 12DIV, the cells were treated with 50 μM of compound for 6 hours, then CRE-dependent transcription activity was assayed by measuring luciferase levels.
Freshly isolated embryonic cortical neurons were transfected with a luciferase reporter gene (Cre-Luc) linked to CREB activation following the ACM lipofectamine method using Lipofectamine 2000, a cationic liposome based reagent (Invitrogen). […] Transfection was performed using 1 μL Lipofectamine 2000 and 0.4 μg DNA per well. Neurons were then treated with test samples for time periods of 6 hours. After treatment, the cells were washed with ice-cold DPBS and 100 μL of 1× luciferase lysis buffer (Promega) was added. The plates were placed in −20° C. to freeze the cells, after which they were thawed to facilitate lysis. The lysates were transferred onto white bottom plates and assayed for renilla luciferase using the luciferase assay kit (Promega). Increased CREB activation in the neurons leads to an enhanced luciferase production and this was quantified using a Promega GloMax™ 96 microplate luminometer. […] BDNF and rolipram were used as positive controls.

CREB promoter = CREB promoter assay (luciferase) in cortical neurons; assay type: cell-based, rat; details: cortical neurons 7DIV, 6 hours incubation
Description: FIG. 26. GAG-C77 increases CREB-promoter activity in primary cortical neurons. Primary cortical neuronal cultures (7DIV) transfected with a luciferase-CREB promoter construct were treated with GAG-C69 or GAG-C77 (concentration depicted in [μM]). Cell lysates were collected after 6 hours incubation and luciferase activity was measured. BDNF [ng/mL] and rolipram [μM] were used as positive controls. Assays were conducted in triplicate. *=P<0.05; **=P<0.005.
Freshly isolated embryonic cortical neurons were transfected with a luciferase reporter gene (Cre-Luc) linked to CREB activation following the ACM lipofectamine method using Lipofectamine 2000, a cationic liposome based reagent (Invitrogen). […] Transfection was performed using 1 μL Lipofectamine 2000 and 0.4 μg DNA per well. Neurons were then treated with test samples for time periods of 6 hours. After treatment, the cells were washed with ice-cold DPBS and 100 μL of 1× luciferase lysis buffer (Promega) was added. The plates were placed in −20° C. to freeze the cells, after which they were thawed to facilitate lysis. The lysates were transferred onto white bottom plates and assayed for renilla luciferase using the luciferase assay kit (Promega). Increased CREB activation in the neurons leads to an enhanced luciferase production and this was quantified using a Promega GloMax™ 96 microplate luminometer. […]

hippocampal neurons = assay: Quantification of spine (dendritic spine morphology); assay type: cell-based, rat; details: hippocampal neurons 14DIV, 10 μM, 24 hr, vs DMSO
Description: FIG. 38. GAG-C14 modulates spine morphogenesis. Hippocampal neurons were transfected with enhanced green fluorescent protein (EGFP) construct at 7DIV by calcium phosphate precipitation. The GFP-expressing neurons at 14DIV were then treated with 10 μM GAG-C14 or DMSO vehicle control for 24 hr. The dendritic spine morphology of hippocampal neurons was examined by confocal microscopy.
Cultured hippocampal neurons were seeded on 18 mm coverslips coated with poly-D-lysine in 12-well-plates (Falcon). The neurons were then grown in Neurobasal medium (Invitrogen) supplemented with 2% B27 (Invitrogen) and 0.5 mM glutamine. To visualize the morphology of dendritic spines, the neurons were transfected with GFP DNA construct between 7-9 DIV by using calcium phosphate precipitation. To examine the development of dendritic spines, the neurons were treated with the test compound on 14 DIV. The neurons were then fixed with 4% paraformaldehyde and morphology was examined using confocal microscopy. To quantify spine density in cultured hippocampal neurons, a stack of images (z step, 0.5 μm) was collected using a 60× objective. Images were merged and analyzed using MetaMorph software (Universal Imaging Corp). Dendritic spines, defined as protrusions at least 0.5 μm from the dendritic surface, were scored and expressed as per μm length of dendrite. Three dendrites from each neuron was randomly selected and quantified in a double-blinded manner. For each experimental condition, twenty to thirty neurons were analyzed from 3 independent experiments. Data was presented as mean±SEM.

Row | Molecule | cell survival of cortical neurons in the absence of B27 (MTT) [1] | concentration showing neuroprotective effect in the absence of B27 (MTT) [1] [µM] | AKT protein phosphorylation ([3]; 10 μM) | ERK phosphorylation time course ([3]; 10 μM) | CRE-dependent transcription activity (luciferase) [4] | other results
1 | 3-O-β-D-Cymaropyranose-(1→4)-β-D-Digitoxopyranose-12-cis-cinnamyl-20-acetyl-8,14-seco-sacrostin [GAG-C27] | promoted cell survival | 30 | no effect | induced ERK phosphorylation in cortical neurons after 15 min, which was sustained for 60 min |  | protection from cell death after B27 withdrawal (immunofluorescence staining) [2]: protected cortical neurons from cell death; phosphorylated P38 ([3]; 10 μM, after 30 min of incubation): reduction
2 | C[C@]12CC[C@H]3[C@@H](C=CC4=CC(=O)CC[C@@]43C)[C@@H]1CC(C(=O)O)C2 (stereo partly drawn) [GAG-C63, 4,6-diene-16-carboxylic acid-3-oxo-androstane] |  |  |  |  | enhances CRE-dependent transcription | 
3 | COc1cc(C2Oc3c(OC)cc(C=O)cc3C2C)ccc1O (stereo not drawn) [GAG-C77, 4-hydroxyl-3,3′-dimethyoxyl-4″,7-epoxy-8,5′-oxyneoligna-7′-al] | promoted cell survival | 10 to 30 |  |  |  | luciferase activity driven by the CREB promoter (CREB promoter): significantly induce luciferase activity; ERK phosphorylation time course ([3]; 30 μM): significantly induced ERK phosphorylation in cortical neurons from 15 min and persistently to 180 min; CREB phosphorylation ([3]; 30 μM, 15 min of incubation): induced CREB phosphorylation
4 | CCCCCCCCCCCCCCCC(=O)OCC(O)CO (stereo not drawn) [GAG-C14, 2,3-dihydroxypropyl palmitate] |  |  | no observable effect | induced ERK phosphorylation in cortical neurons after 15 min and the effect remained for 90 min | enhances CRE-dependent transcription | frequency / percentage of filopodia (hippocampal neurons): reduction in the frequency of filopodia; percentage of large spines (head>1 μm) (hippocampal neurons): significantly increased; spine density (hippocampal neurons): increase in spine density
